Source: PubChem BioAssay AID624446 (The Scripps Research Institute Molecular Screening Center, 2012)
Activity calls are given as the source filed them.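 Rule for the calls: active = compounds blocking protein phosphatase 1 with half-maximal inhibitory concentration IC50 under 50 µM; inactive = IC50 of 50 µM or more.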

Target: Serine/threonine-protein phosphatase PP1-alpha catalytic subunit (Homo sapiens) (UniProt P62136)
Assay: PP1alpha inhibitor potency, phosphohistone substrate, late-stage follow-up, selectivity assay for PP5 inhibitor project, biochemical, 32P-phosphohistone, radiolabel, dose response, round 5 (AID 624446)
Settings: purified PP1alpha, 32P-phosphohistone dephosphorylation, scintillation

Serine/threonine-protein phosphatase PP1-alpha catalytic subunit (Homo sapiens), sequence (P62136 whole entry, looked up): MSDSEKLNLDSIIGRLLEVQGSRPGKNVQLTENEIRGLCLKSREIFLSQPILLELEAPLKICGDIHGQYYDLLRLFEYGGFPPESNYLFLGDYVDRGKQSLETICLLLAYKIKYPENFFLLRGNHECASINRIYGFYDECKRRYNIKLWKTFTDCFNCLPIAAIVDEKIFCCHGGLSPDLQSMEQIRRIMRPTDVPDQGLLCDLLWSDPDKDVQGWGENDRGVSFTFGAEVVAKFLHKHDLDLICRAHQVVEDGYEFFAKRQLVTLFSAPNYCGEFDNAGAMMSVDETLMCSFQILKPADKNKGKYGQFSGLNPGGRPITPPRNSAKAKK

## CC(C)Oc1ccccc1-c1n[nH]nc1C(=O)O
  IC50: inactive
